Test results from the supplement of paper PMC10307832.

Assays:
Experiment in all cases: relative viability (nuclei count vs DMSO), 5 days (fraction); higher = more cells survive
Tipifarnib + Luminespib = compound: Cn1cncc1[C@@](N)(c1ccc(Cl)cc1)c1ccc2c(c1)c(-c1cccc(Cl)c1)cc(=O)n2C [Tipifarnib] + CCNC(=O)c1noc(-c2cc(C(C)C)c(O)cc2O)c1-c1ccc(CN2CCOCC2)cc1 [Luminespib] (partner 0.01 µM)
How it was run: (§1)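 After 5 days of treatment, lung cancer cells in 1536-well plates were fixed and stained in a single step (final 0.05% Triton X-100, 1% formaldehyde, 1 ug/ml Hoechst) and their nuclei counted on 4× images. Treatment had been applied by pin tool the day after seeding as one drug alone or as a fixed anchor-drug dose with five library-drug doses (not always all listed) in √10 steps. Relative viability is the nuclei count of treated wells divided by that of vehicle wells, and values are medians of duplicate plates.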

Tipifarnib + Dasatinib = compound: Cn1cncc1[C@@](N)(c1ccc(Cl)cc1)c1ccc2c(c1)c(-c1cccc(Cl)c1)cc(=O)n2C [Tipifarnib] + Cc1nc(Nc2ncc(C(=O)Nc3c(C)cccc3Cl)s2)cc(N2CCN(CCO)CC2)n1 [Dasatinib] (partner 0.075 µM)
How it was run: as §1

Tipifarnib + Bortezomib = compound: Cn1cncc1[C@@](N)(c1ccc(Cl)cc1)c1ccc2c(c1)c(-c1cccc(Cl)c1)cc(=O)n2C [Tipifarnib] + CC(C)C[C@H](NC(=O)[C@H](Cc1ccccc1)NC(=O)c1cnccn1)B(O)O [Bortezomib] (partner 0.002 µM)
How it was run: as §1

Tipifarnib + Navitoclax = compound: Cn1cncc1[C@@](N)(c1ccc(Cl)cc1)c1ccc2c(c1)c(-c1cccc(Cl)c1)cc(=O)n2C [Tipifarnib] + CC1(C)CCC(c2ccc(Cl)cc2)=C(CN2CCN(c3ccc(C(=O)NS(=O)(=O)c4ccc(N[C@H](CCN5CCOCC5)CSc5ccccc5)c(S(=O)(=O)C(F)(F)F)c4)cc3)CC2)C1 [Navitoclax] (partner 0.5 µM)
How it was run: as §1

Cell Line | relative viability (Tipifarnib + Luminespib; first compound 0.01 µM) | relative viability (Tipifarnib + Luminespib; first compound 0.03162 µM) | relative viability (Tipifarnib + Luminespib; first compound 0.1 µM) | relative viability (Tipifarnib + Luminespib; first compound 0.3162 µM) | relative viability (Tipifarnib + Luminespib; first compound 1 µM) | relative viability (Tipifarnib + Dasatinib; first compound 0.01 µM) | relative viability (Tipifarnib + Dasatinib; first compound 0.03162 µM) | relative viability (Tipifarnib + Dasatinib; first compound 0.1 µM) | relative viability (Tipifarnib + Dasatinib; first compound 0.3162 µM) | relative viability (Tipifarnib + Dasatinib; first compound 1 µM) | relative viability (Tipifarnib + Bortezomib; first compound 0.01 µM) | relative viability (Tipifarnib + Bortezomib; first compound 0.03162 µM) | relative viability (Tipifarnib + Bortezomib; first compound 0.1 µM) | relative viability (Tipifarnib + Bortezomib; first compound 0.3162 µM) | relative viability (Tipifarnib + Bortezomib; first compound 1 µM) | relative viability (Tipifarnib + Navitoclax; first compound 0.01 µM) | relative viability (Tipifarnib + Navitoclax; first compound 0.03162 µM) | relative viability (Tipifarnib + Navitoclax; first compound 0.1 µM) | relative viability (Tipifarnib + Navitoclax; first compound 0.3162 µM) | relative viability (Tipifarnib + Navitoclax; first compound 1 µM)
NCI-H358 | 0.246 | 0.297 | 0.212 | 0.212 | 0.214 | 0.142 | 0.224 | 0.157 | 0.169 | 0.155 | – | – | – | – | – | – | – | – | – | –
NCI-H650 | 0.888 | 0.697 | 0.61 | 0.57 | 0.442 | 0.421 | 0.375 | 0.366 | 0.284 | 0.266 | 0.781 | 0.36 | 0.697 | 0.539 | 0.346 | – | – | – | – | –
NCI-H661 | 0.898 | 0.844 | 0.847 | 0.713 | 0.669 | 1.11 | 0.949 | 0.914 | 0.601 | 0.619 | 0.967 | 0.818 | 0.569 | 0.598 | 0.744 | – | – | – | – | –
NCI-H1299 | – | – | – | – | – | – | – | – | – | – | 0.988 | 0.954 | 0.929 | 0.847 | 0.816 | 0.966 | 0.969 | 0.977 | 0.88 | 0.828
NCI-H1395 | 0.776 | 0.72 | 0.711 | 0.446 | 0.452 | 0.421 | 0.348 | 0.342 | 0.34 | 0.381 | – | – | – | – | – | 1.17 | 0.936 | 0.978 | 0.835 | 0.799
NCI-H1563 | 0.491 | 0.558 | 0.538 | 0.519 | 0.526 | 0.44 | 0.53 | 0.453 | 0.489 | 0.387 | 0.996 | 0.881 | 0.87 | 0.871 | 0.748 | – | – | – | – | –
NCI-H1703 | – | – | – | – | – | – | – | – | – | – | 0.296 | 0.262 | 0.304 | 0.195 | 0.186 | 1.1 | 0.563 | 0.27 | 0.359 | 0.364
NCI-H1793 | 0.23 | 0.173 | 0.196 | 0.134 | 0.138 | 0.455 | 0.43 | 0.34 | 0.246 | 0.243 | – | – | – | – | – | 0.409 | 0.481 | 0.441 | 0.373 | 0.353
NCI-H1944 | 0.641 | 0.657 | 0.363 | 0.372 | 0.393 | 0.213 | 0.173 | 0.161 | 0.17 | 0.169 | – | – | – | – | – | 1.18 | 0.826 | 0.913 | 0.519 | 0.524
NCI-H2170 | 0.406 | 0.555 | 0.619 | 0.282 | 0.691 | 0.688 | 0.805 | 0.601 | 0.636 | 0.462 | – | – | – | – | – | 0.733 | 0.566 | 0.448 | 0.433 | 0.338
NCI-H2342 | 0.689 | 0.669 | 0.635 | 0.569 | 0.51 | 0.332 | 0.337 | 0.272 | 0.331 | 0.267 | – | – | – | – | – | – | – | – | – | –
SK-MES-1 | 0.679 | 0.606 | 0.675 | 0.373 | 0.348 | 0.44 | 0.341 | 0.337 | 0.18 | 0.249 | – | – | – | – | – | 1.3 | 1.11 | 0.866 | 0.785 | 0.655
